Where two headings read alike, the source gives them in different places.
Tested on: CHO-S cells
Protocol: CHO-S cells (Thermo Fisher Scientific, A1155701) were passaged according to the manufacturer's recommendations at 37 °C and 5% CO2 in CD-CHO medium (Thermo Fisher Scientific , 10743029) containing 8 mM GlutaMAX. […] Viable cell densities and viabilities were recorded daily.

[1] = Day 1, Proline-free Medium + 0,5mM L-Prolin
[2] = Day 1, Proline-free Medium + 0,25mM L-Prolin
[3] = Day 1, Proline-free Medium + 1,0mM L-Prolin
[4] = Day 1, Proline-free Medium + 2,5mM L-Prolin
[5] = Day 2, Proline-free Medium + 0,5mM L-Prolin
[6] = Day 2, Proline-free Medium + 0,25mM L-Prolin
[7] = Day 2, Proline-free Medium + 1,0mM L-Prolin
[8] = Day 2, Proline-free Medium + 2,5mM L-Prolin
[9] = Day 3, Proline-free Medium + 0,5mM L-Prolin
[10] = Day 3, Proline-free Medium + 0,25mM L-Prolin
[11] = Day 3, Proline-free Medium + 1,0mM L-Prolin
[12] = Day 3, Proline-free Medium + 2,5mM L-Prolin
[13] = Day 6, Proline-free Medium + 0,5mM L-Prolin
[14] = Day 6, Proline-free Medium + 0,25mM L-Prolin
[15] = Day 6, Proline-free Medium + 1,0mM L-Prolin
[16] = Day 6, Proline-free Medium + 2,5mM L-Prolin

O=C(O)[C@@H]1CCCN1 [L-Prolin, L-Proline]
Viability [1]: 98,2 | Viable Cell Conc. [1]: 3,7E+05 | Viability [2]: 95,6 | Viable Cell Conc. [2]: 3,5E+05 | Viability [3]: 100,0 | Viable Cell Conc. [3]: 3,6E+05 | Viability [4]: 99,3 | Viable Cell Conc. [4]: 3,3E+05 | Viability [5]: 99,7 | Viable Cell Conc. [5]: 6,3E+05 | Viability [6]: 98,1 | Viable Cell Conc. [6]: 5,7E+05 | Viability [7]: 99,7 | Viable Cell Conc. [7]: 5,6E+05 | Viability [8]: 97,5 | Viable Cell Conc. [8]: 4,9E+05 | Viability [9]: 99,5 | Viable Cell Conc. [9]: 1,2E+06 | Viability [10]: 99,6 | Viable Cell Conc. [10]: 9,1E+05 | Viability [11]: 99,2 | Viable Cell Conc. [11]: 1,1E+06 | Viability [12]: 99,8 | Viable Cell Conc. [12]: 1,1E+06 | Viability [13]: 99,9 | Viable Cell Conc. [13]: 3,8E+06 | Viability [14]: 98,2 | Viable Cell Conc. [14]: 1,3E+06 | Viability [15]: 99,5 | Viable Cell Conc. [15]: 6,6E+06 | Viability [16]: 99,7 | Viable Cell Conc. [16]: 6,3E+06
